The values below come from ChEMBL document CHEMBL2040778, “The binding of C5-alkynyl and alkylfurano[2,3-d]pyrimidine glucopyranonucleosides to glycogen phosphorylase b: synthesis, biochemical and biological assessment” (Eur J Med Chem, 2012).

As a reminder, the Ki is the dissociation constant of the complex between target and ligand, obtained from inhibition or displacement. A higher Ki goes with lower affinity. Broadly, the IC50 is the concentration at which inhibition is half-maximal. A high value points to weaker potency in that assay.

The target of data set [1] is T1, Glycogen phosphorylase, muscle form (Oryctolagus cuniculus, UniProt P00489).
T1 sequence (P00489 whole entry): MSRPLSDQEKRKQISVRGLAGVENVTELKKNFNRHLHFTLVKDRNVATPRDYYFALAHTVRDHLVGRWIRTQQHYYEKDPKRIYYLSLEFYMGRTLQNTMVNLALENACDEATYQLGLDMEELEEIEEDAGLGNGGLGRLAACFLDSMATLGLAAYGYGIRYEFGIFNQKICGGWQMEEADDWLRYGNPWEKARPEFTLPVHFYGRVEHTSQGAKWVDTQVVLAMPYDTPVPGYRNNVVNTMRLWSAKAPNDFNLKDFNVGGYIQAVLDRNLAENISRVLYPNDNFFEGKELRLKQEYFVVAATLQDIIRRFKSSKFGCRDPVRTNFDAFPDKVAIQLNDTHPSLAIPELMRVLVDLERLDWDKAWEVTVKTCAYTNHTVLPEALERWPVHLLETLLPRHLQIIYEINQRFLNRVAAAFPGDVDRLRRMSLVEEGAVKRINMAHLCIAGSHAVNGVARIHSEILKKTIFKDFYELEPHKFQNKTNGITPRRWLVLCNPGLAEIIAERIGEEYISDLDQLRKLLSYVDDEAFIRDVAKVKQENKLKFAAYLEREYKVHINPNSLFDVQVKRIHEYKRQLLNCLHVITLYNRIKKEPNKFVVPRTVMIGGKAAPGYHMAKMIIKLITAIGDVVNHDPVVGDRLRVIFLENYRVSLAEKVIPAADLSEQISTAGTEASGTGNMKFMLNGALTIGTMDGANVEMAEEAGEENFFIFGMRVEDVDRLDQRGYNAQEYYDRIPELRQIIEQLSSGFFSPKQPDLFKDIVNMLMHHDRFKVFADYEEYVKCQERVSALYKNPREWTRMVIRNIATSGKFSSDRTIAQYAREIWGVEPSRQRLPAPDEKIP
Description: Competitive inhibition of rabbit skeletal muscle glycogen phosphorylase b using Glc-1-P as substrate. On the set-up: species or system Muscle tissue.

Data set [2] deals with T2, Glycogen phosphorylase, muscle form (Homo sapiens, UniProt P11217).
T2 sequence (P11217 whole entry): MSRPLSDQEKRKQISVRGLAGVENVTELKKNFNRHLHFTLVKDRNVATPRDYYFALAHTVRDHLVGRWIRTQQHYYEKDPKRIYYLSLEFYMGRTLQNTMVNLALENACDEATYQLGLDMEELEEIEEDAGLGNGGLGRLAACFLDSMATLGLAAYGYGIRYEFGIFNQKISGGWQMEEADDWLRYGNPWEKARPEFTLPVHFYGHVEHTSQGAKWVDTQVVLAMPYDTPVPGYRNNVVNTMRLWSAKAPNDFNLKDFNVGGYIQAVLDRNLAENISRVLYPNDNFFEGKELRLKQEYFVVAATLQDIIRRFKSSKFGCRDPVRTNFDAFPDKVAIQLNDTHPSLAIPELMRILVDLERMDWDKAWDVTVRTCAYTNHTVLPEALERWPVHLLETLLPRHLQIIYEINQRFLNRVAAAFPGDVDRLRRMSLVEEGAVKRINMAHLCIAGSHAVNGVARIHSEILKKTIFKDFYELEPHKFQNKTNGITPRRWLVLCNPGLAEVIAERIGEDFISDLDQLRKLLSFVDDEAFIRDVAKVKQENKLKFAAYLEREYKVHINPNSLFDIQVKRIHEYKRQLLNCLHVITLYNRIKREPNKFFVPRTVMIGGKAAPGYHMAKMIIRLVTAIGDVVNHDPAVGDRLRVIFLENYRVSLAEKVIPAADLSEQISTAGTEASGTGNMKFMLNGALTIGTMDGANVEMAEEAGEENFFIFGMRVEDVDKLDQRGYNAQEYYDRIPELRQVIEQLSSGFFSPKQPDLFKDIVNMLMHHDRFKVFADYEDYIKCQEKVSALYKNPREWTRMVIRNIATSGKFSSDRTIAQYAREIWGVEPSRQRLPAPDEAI
The data set can be described thus: Inhibition of glycogen phosphorylase b in human HepG2 cells after 3 hrs. In kind it is cell-based.

The subject of data set [3] is HepG2. Description: Cytotoxicity against human HepG2 cells up to 150 uM after 6 hrs by MTT assay. The format is cell-based. The conditions noted are these: hepg2, 6 h.
Data set [4] deals with HepG2. The data set can be described thus: Cytotoxicity against human HepG2 cells assessed as decrease in viability up to 500 uM after 6 hrs by MTT assay relative to control. In kind it is cell-based. The conditions noted are these: hepg2, 6 h. For orientation: Tetrazolium dyes change colour on reduction, which living cells bring about.
Data set [5] deals with Glycogen phosphorylase, muscle form, Oryctolagus cuniculus (UniProt P00489). The data set can be described thus: Inhibition of glycogen phosphorylase b.

The molecule `C#Cc1cn([C@@H]2O[C@H](CO)[C@@H](O)[C@H](O)[C@H]2O)c(=O)[nH]c1=O` registered a Ki in data set [1] of 4.7 µM. Also, inhibition in data set [2] was half-maximal at 291 µM (IC50). For the same molecule, the Activity result with HepG2 [3] is recorded as “Non-toxic”; with HepG2 [4], 10%.
Regarding `O=c1[nH]c(=O)n([C@@H]2O[C@H](CO)[C@@H](O)[C@H](O)[C@H]2O)cc1Br`, in data set [5], affinity was put at a Ki of 3.27 µM.
For `CCCCCc1cc2cn([C@@H]3O[C@H](CO)[C@@H](O)[C@H](O)[C@H]3O)c(=O)nc2o1`, the inhibition constant (Ki) in data set [1] is 33.4 µM.
For the molecule `O=c1[nH]c(=O)n([C@@H]2O[C@H](CO)[C@@H](O)[C@H](O)[C@H]2O)cc1Cl`, the inhibitory constant (Ki) in data set [1] and in data set [5] was 1.02 µM throughout.
In the case of `CCCCCC#Cc1cn([C@@H]2O[C@H](CO)[C@@H](O)[C@H](O)[C@H]2O)c(=O)[nH]c1=O`, in data set [1], the IC50 came to 6100 µM.
In the case of `CCCc1cc2cn([C@@H]3O[C@H](CO)[C@@H](O)[C@H](O)[C@H]3O)c(=O)nc2o1`, in data set [1], the Ki was 32.4 µM.
On to `CCCC#Cc1cn([C@@H]2O[C@H](CO)[C@@H](O)[C@H](O)[C@H]2O)c(=O)[nH]c1=O`, for which the inhibition constant (Ki) in data set [1] came to 303 µM.
As for `O=c1[nH]c(=O)n([C@@H]2O[C@H](CO)[C@@H](O)[C@H](O)[C@H]2O)cc1I`, affinity in data set [5] was put at a Ki of 1.94 µM.
